# According to paper PMC11995724, “Antibiotic target discovery by integrated phenotypic and activity-based profiling of electrophilic fragments” (Cell chemical biology, 2025):
# Assay: in vitro
# Conditions: human, hek293t cells
row,SMILES,"viability at 48 h, 25 µM"
1,"CC(NC(=O)C(C#N)=Cc1ccco1)c1cccnc1 (stereo not shown) [9-K03, 2-cyano-3-(furan-2-yl)-N-[1-(pyridin-3-yl)ethyl]prop-2-enamide]",129%
2,"N#CC(=Cc1ccc(OC(F)F)cc1)C(=O)Nc1cccnc1 [9-K04, 2-cyano-3-[4-(difluoromethoxy)phenyl]-N-(pyridin-3-yl)prop-2-enamide]",115%
3,"CCc1nsc(N2CCN(C(=O)C(C#N)=Cc3ccco3)CC2)n1 [9-K05, 2-[4-(3-ethyl-1,2,4-thiadiazol-5-yl)piperazine-1-carbonyl]-3-(furan-2-yl)prop-2-enenitrile]",121%
4,"N#CC(=Cc1c(Cl)cccc1Cl)C(=O)NCc1ccco1 [9-K06, 2-cyano-3-(2,6-dichlorophenyl)-N-[(furan-2-yl)methyl]prop-2-enamide]",29.2%
5,"CC(C)NC(=O)C(C#N)=Cc1ccc(Cl)cc1Cl [9-K07, 2-cyano-3-(2,4-dichlorophenyl)-N-(propan-2-yl)prop-2-enamide]",49.5%
6,"Cc1ccc(C=C(C#N)C(=O)Nc2ccccc2C(=O)O)s1 [9-K08, 2-[2-cyano-3-(5-methylthiophen-2-yl)prop-2-enamido]benzoic acid]",104%
7,"N#CC(=Cc1cccc(F)c1)C(=O)NCc1ccccc1 [9-K09, N-benzyl-2-cyano-3-(3-fluorophenyl)prop-2-enamide]",109%
8,"N#CC(=Cc1ccc2ccccc2c1)C(=O)NC(N)=O [9-K10, {2-cyano-2-[(naphthalen-2-yl)methylidene]acetyl}urea]",116%
9,"COc1cc(C=C(C#N)C(=O)NC(C)C)cc(Cl)c1O [9-K11, 3-(3-chloro-4-hydroxy-5-methoxyphenyl)-2-cyano-N-(propan-2-yl)prop-2-enamide]",115%
10,"N#CC(=Cc1ccc(N2CCCC2)cc1)C(=O)N1CCC(C(N)=O)CC1 [9-K12, 1-(2-cyano-2-{[4-(pyrrolidin-1-yl)phenyl]methylidene}acetyl)piperidine-4-carboxamide]",108%
11,"COc1cc(C=C(C#N)C(N)=O)cc(OC)c1OC [9-K13, 2-cyano-3-(3,4,5-trimethoxyphenyl)prop-2-enamide]",129%
12,"N#CC(=Cc1cccnc1)C(=O)NCCc1ccccc1 [9-K14, 2-cyano-N-(2-phenylethyl)-3-(pyridin-3-yl)prop-2-enamide]",89.3%
13,"Cc1ccc(C=C(C#N)C(=O)NC2CC2)s1 [9-K15, 2-cyano-N-cyclopropyl-3-(5-methylthiophen-2-yl)prop-2-enamide]",126%
14,"N#CC(=Cc1ccc(-c2ccc(Cl)cc2)o1)C(=O)NC1CC1 [9-K16, 3-[5-(4-chlorophenyl)furan-2-yl]-2-cyano-N-cyclopropylprop-2-enamide]",91%
15,"Cc1ccc(NC(=O)C(C#N)=Cc2ccccc2OC(F)F)c(C)c1 [9-K17, 2-cyano-3-[2-(difluoromethoxy)phenyl]-N-(2,4-dimethylphenyl)prop-2-enamide]",94.9%
16,"CC1=C(C#N)C(=O)N(C)C(=O)C1=Cc1ccc(-c2ccccc2Cl)o1 [9-K18, 5-{[5-(2-chlorophenyl)furan-2-yl]methylidene}-1,4-dimethyl-2,6-dioxo-1,2,5,6-tetrahydropyridine-3-carbonitrile]",126%
17,"N#CC(=Cc1ccccc1OC(F)F)C(=O)Nc1nccs1 [9-K19, 2-cyano-3-[2-(difluoromethoxy)phenyl]-N-(1,3-thiazol-2-yl)prop-2-enamide]",119%
18,"N#CC(=Cc1ccc2c(c1)OCCO2)C(=O)Nc1ccc(F)cc1 [9-K20, 2-cyano-3-(2,3-dihydro-1,4-benzodioxin-6-yl)-N-(4-fluorophenyl)prop-2-enamide]",114%
19,"N#CC(=Cc1ccc([N+](=O)[O-])cc1)C(=O)Nc1cccc2ncccc12 [9-K21, 2-cyano-3-(4-nitrophenyl)-N-(quinolin-5-yl)prop-2-enamide]",114%
